Measured values published in PMC6576746, “Rational discovery of dual-indication multi-target PDE/Kinase inhibitor for precision anti-cancer therapy using structural systems pharmacology” (PLoS Computational Biology, 2019).

Tests used:
Assay in all cases: cells
Parameters in all cases: species or system panel of human cancer cell lines; Eurofins OncoPanel proliferation; nuclei count by high-content fluorescence imaging, 10-point dose response
[1] = tested on: 22Rv1; conditions: Homo sapiens, 22Rv1, 72 h, cell count, 3 days
Method: (§1) OncoPanel cancer cell proliferation assay was performed by Eurofins Panlabs, Inc. (Missouri, USA). Cancer cells were grown in RPMI 1640, 10% FBS, 2 mM L-alanyl-L-glutamine, 1 mM Na pyruvate, or a special medium. Cells were seeded into 384-well plates and incubated in a humidified atmosphere of 5% CO2 at 37°C. Compounds were added the day following cell seeding. At the same time, a time zero untreated cell plate was generated. After a 3-day incubation period, cells were fixed and stained to allow fluorescence imaging of nuclei. Levosimendan was serially diluted in half-log steps from 100 μM and assayed over 10 concentrations with a maximum assay concentration of 0.1% DMSO. Automated fluorescence microscopy was carried out using a Molecular Devices ImageXpress Micro XL high-content imager, and images were collected with a 4X objective. 16-bit TIFF images were acquired and analyzed with MetaXpress 5.1.0.41 software. Cell count EC50 is the test concentration at the curve inflection point (parameter C), or half the effective response. IC50 is the test compound concentration at 50% of the maximum possible response. GI50 is the concentration needed to reduce the observed growth by half (midway between the relative cell count at the curve maximum and at the time of compound addition). Activity area is an estimate of the integrated area above the response curve. Activity area values range from 0–10, where a value of zero indicates no inhibition of proliferation at all concentrations, and a value of 10 indicates complete inhibition of proliferation at all concentrations.

[2] = tested on: A101D; conditions: Homo sapiens, A101D, 72 h, cell count, 3 days
Method: as §1

[3] = tested on: BV-173; conditions: Homo sapiens, BV-173, 72 h, cell count, 3 days
Method: as §1

[4] = tested on: C-33A; conditions: Homo sapiens, C-33-A, 72 h, cell count, 3 days
Method: as §1

[5] = tested on: Colo 201; conditions: Homo sapiens, COLO 201, 72 h, cell count, 3 days
Method: as §1

[6] = tested on: DK-MG; conditions: 72 h, cell count, 3 days
Method: as §1

[7] = tested on: HUH-6 Clone 5; conditions: HUH-6-clone5, 72 h, cell count, 3 days
Method: as §1

[8] = tested on: Hs 888.Sk; conditions: 72 h, cell count, 3 days
Method: as §1

[9] = tested on: J82; conditions: Homo sapiens, J82, 72 h, cell count, 3 days
Method: as §1

[10] = tested on: NCI-H520; conditions: Homo sapiens, NCI-H520, 72 h, cell count, 3 days
Method: as §1

[11] = tested on: SNU-423; conditions: Homo sapiens, SNU-423, 72 h, cell count, 3 days
Method: as §1

[12] = tested on: SU-DHL-8; conditions: Homo sapiens, SU-DHL-8, 72 h, cell count, 3 days
Method: as §1

[13] = tested on: SW900; conditions: Homo sapiens, SW900, 72 h, cell count, 3 days
Method: as §1

[14] = tested on: SW954; conditions: Homo sapiens, SW 954, 72 h, cell count, 3 days
Method: as §1

[15] = 50% of maximum possible response

IC50 [1, 15]: 55.6 µM | GI50 ([1]; corrected for time zero): 45.8 µM | EC50 ([1]; curve inflection point): 55.6 µM | IC50 [5, 15]: 68.3 µM | GI50 ([5]; corrected for time zero): 53.8 µM | EC50 ([5]; curve inflection point): 68.3 µM | IC50 [7, 15]: 27.1 µM | GI50 ([7]; corrected for time zero): 20 µM | EC50 ([7]; curve inflection point): 27.1 µM | IC50 [10, 15]: > 100 µM | GI50 ([10]; corrected for time zero): > 100 µM | EC50 ([10]; curve inflection point): > 100 µM | IC50 [11, 15]: 19.2 µM | GI50 ([11]; corrected for time zero): 16.5 µM | EC50 ([11]; curve inflection point): 14.8 µM | IC50 [12, 15]: 0.604 µM | GI50 ([12]; corrected for time zero): 0.512 µM | EC50 ([12]; curve inflection point): 0.604 µM | IC50 [13, 15]: 67.6 µM | GI50 ([13]; corrected for time zero): 35.9 µM | EC50 ([13]; curve inflection point): 67.6 µM | IC50 [14, 15]: 22.5 µM | GI50 ([14]; corrected for time zero): 20.5 µM | EC50 ([14]; curve inflection point): 22 µM
SMILES: C[C@@H]1CC(=O)NN=C1c1ccc(NN=C(C#N)C#N)cc1 [levosimendan]
IC50 [2, 15]: 34.8 µM | GI50 ([2]; corrected for time zero): 26.6 µM | EC50 ([2]; curve inflection point): 34.8 µM | IC50 [3, 15]: 12 µM | GI50 ([3]; corrected for time zero): 10.1 µM | EC50 ([3]; curve inflection point): 12 µM | IC50 [4, 15]: 14.5 µM | GI50 ([4]; corrected for time zero): 10.7 µM | EC50 ([4]; curve inflection point): 14.5 µM | IC50 [6, 15]: > 100 µM | GI50 ([6]; corrected for time zero): 49.4 µM | EC50 ([6]; curve inflection point): > 100 µM | IC50 [8, 15]: > 100 µM | GI50 ([8]; corrected for time zero): 47.6 µM | EC50 ([8]; curve inflection point): > 100 µM | IC50 [9, 15]: > 100 µM | GI50 ([9]; corrected for time zero): > 100 µM | EC50 ([9]; curve inflection point): > 100 µM
